From patent US10363251B2, “(+)-morphinans as antagonists of toll-like receptor 9 and therapeutic uses thereof” (Mallinckrodt LLC, priority 2009, dated 2019)
“Also recorded” adds a separate entry of the source.

Columns and labels:
[1] = tested on: chronic constriction injury (CCI) neuropathic pain model; assay: Reversal of allodynia (von Frey) in CCI rats, 4 days of dosing, Example 4; assay type: in vivo, rat; settings: i.p. once a day for 4 days from day 14; tested 3 hrs after dosing; ultra low to high dose; vs saline
Description: Allodynia was induced in a group of (male, Sprague-Dawley) rats essentially as described above in Example 3. Prior to surgery, animals were tested to establish their baseline von Frey scores. Any animal with a Log absolute von Frey score lower than 4.65 on either leg was excluded from the study. CCI surgery was performed on the left sciatic nerve as detailed above. On days 4 and 14 post-surgery, the animals were tested using the von Frey test of mechanical allodynia to ensure that allodynia was established.
Beginning at about day 14 post-surgery, the animals were dosed once a day for 4 days. Compounds II-25, II-93, II-62, and III-2 were tested. All drugs were administered intraperitoneally (i.p.). Allodynia was tested prior to and again 3 hrs after each dosing. Drug administration and testing was done blindly. After the 4th day of dosing, the animals were sacrificed, cardiac perfusion was performed, and spinal cords were removed and stored for further analysis.
All data were analyzed using 2-way ANOVA's with Bonferroni's post hoc test compared to saline unless otherwise stated. Area under curve (AUC) was calculated using Graphpad Prism and comparisons were made using 1-way ANOVA with Dunnet's post hoc test.

acute pancreatitis = assay: Caerulein-induced acute pancreatitis model; assay type: in vivo, mouse; settings: 30 mg/kg subcutaneously, vs saline
Description: Acute pancreatitis can be induced in rodents by administration of caerulein, a CCK analog derived from derived from the Australian tree frog Litoria caerulea. To determine whether a (+)-morphinan could reduce the inflammation and/or consequences of pancreatitis, the following example was performed. Mice were administered subcutaneously an effective dose of caerulein and either saline or Cmpd II-78 (30 mg/kg). After the standard period of time, the mice were sacrificed. Pancreatic tissue sections were stained and examined for neutrophil infiltration, and pancreatic trypsin, serum amylase, and pancreatic caspase −1 activities were measure using standard assays.

[2] = tested on: hepatic ischemia reperfusion (IR) injury; assay: Hepatic ischemia reperfusion (IR) injury model; assay type: in vivo, mouse
Description: Anesthetized mice were subjected to 1 hour of hepatic ischemia by occluding the vasculature supplying the left and median lobes (ischemic lobes) of the liver by a microvascular clamp. Thereafter, the blood supply was resumed (reperfusion). Some animals were sacrificed after 3 hour of reperfusion, and others after 12 hours or reperfusion. The experimental group received Cmpd II-78 at a dose of 80 mg/kg given intraperitoneally 1 hour prior to starting ischemia. The compound was administered before the start of ischemia to mimic the presumed clinical timing of delivery.
Livers were sectioned, stained, examined, and scored (Suzuki scoring system) based on the presence and/or severity of sinusoidal congestion, cytoplasmic vacuolization, and necrosis of parenchymal cells, as indicated in the table below. The levels of serum alanine transaminase (ALT) were also measured using a standard assay.
IL-1β, MCP-1, and NLPR3 have pro-inflammatory and tissue damaging properties, and IL-1R antagonist (IL-1Ra) has anti-inflammatory and pro-reparative functions in the liver. MAP kinases are part of an important cytoplasmic signaling cascade that are known to be activated (i.e., phosphorylated) by IR. The levels of IL-1β, MCP-1, NLPR3, and IL-1Ra mRNA were determined in whole liver (at the 12 hour time point) using standard techniques (e.g., RT-PCR). The activation of MAP kinases was determined in whole liver lysates by Western blotting using phospho-specific antibodies (12 hour time point).

[3] = tested on: Experimental Autoimmune Encephalomyelitis (EAE); settings: bid for 20 days; Cmpd II-98 5 mg/kg sc, others 20 mg/kg sc, Prednisolone 4.5 mg/kg ip; vs vehicle control
[4] = tested on: hepatic IR injury in steatotic livers; assay: IR injury in high fat diet (HFD) steatotic liver model; assay type: in vivo, mouse
Text: In addition to the scarcity of liver donations, many of the donor livers have a significant degree of steatosis which is known to increase IR injury. Thus, many otherwise healthy, but steatotic, livers are rejected for transplantation. If a drug can be shown to reduce IR injury in steatotic livers it would allow use of steatotic livers for transplantation and increase the total number of liver transplants that could be performed. To test this, mice were placed on a high fat diet (HFD) for 12 weeks to induce hepatic steatosis, which was followed by IR injury. For this, mice were subjected to hepatic ischemia by occluding the vasculature supplying the left and median lobes (ischemic lobes) of the liver by a microvascular clamp. After 1 hour of ischemia, the blood supply was resumed (reperfusion). Some animals were sacrificed after 3 hour of reperfusion, and others after 12 hours or reperfusion. The experimental group received Cmpd II-78 at a dose of 80 mg/kg given intraperitoneally 1 hour prior to starting ischemia. Cellular and molecular responses were assessed essentially as described above in Example 9.

[5] = whole liver, 12 hours of reperfusion

Compound	Reversal of allodynia (von Frey) [1]	Neutrophil infiltration in the pancreas (acute pancreatitis)	Pancreatic caspase 1 activity (acute pancreatitis)	Pancreatic trypsin activity (acute pancreatitis)	Serum amylase (acute pancreatitis)	Histological Suzuki score (hepatic IR injury) ([2]; 80 mg/kg ip 1 hour prior to ischemia, 1 h ischemia, 3 and 12 hours of reperfusion)	IR-induced serum ALT levels ([2]; 80 mg/kg ip, 3 and 12 hours of reperfusion)	Liver injury (serum ALT) ([2]; 80 mg/kg ip, 3 hour time point)	Liver injury (serum ALT) ([2]; 80 mg/kg ip, 12 hour time point)	IR-induced cleavage and activation of TLR9 (western blotting) ([2]; liver)	IR-induced activation of MAP kinases (western blotting) ([2]; whole liver lysates, 12 hour time point)	Anti-inflammatory molecule IL-1Ra mRNA relative to β-actin [2, 5]	IR-induced pro-inflammatory cytokines (IL-1β, MCP-1, NLPR3 mRNA relative to β-actin) [2, 5]	EAE clinical scores [3]	IR-induced activation of MAP kinases (western blotting), steatotic livers ([4]; HFD)	IR-induced cleavage and activation of TLR9 (western blotting), steatotic livers ([4]; HFD)	Histological Suzuki score (hepatic IR injury), steatotic livers ([4]; HFD 12 weeks, 80 mg/kg ip 1 hour prior to ischemia, 3 and 12 hours of reperfusion)	IR-induced serum ALT levels, steatotic livers ([4]; HFD, 80 mg/kg ip, 3 and 12 hours of reperfusion)	Anti-inflammatory molecule IL-1Ra mRNA, steatotic livers ([4]; HFD, 12 hours of reperfusion)	IR-induced pro-inflammatory cytokines (IL-1β, MCP-1, NLPR3 mRNA), steatotic livers ([4]; HFD, 12 hours of reperfusion)
C=CCN1CC[C@]23c4c5ccc(O)c4O[C@H]2C(=O)CC[C@]3(O)[C@H]1C5 [(+)-Naloxone, (+)-naloxone]	not effective at reversing allodynia																			
CN[C@@H]1CC[C@]2(O)[C@@H]3Cc4ccc(O)c5c4[C@]2(CCN3CC2CC2)[C@@H]1O5 [II-78]		dramatically reduced; also recorded: reduced neutrophil infiltration in the pancreas	Significant reductions; also recorded: reduced pancreatic caspase 1 activity	Significant reductions; also recorded: reduced	Significant reductions; also recorded: reduced serum amylase	reduced hepatic ischemic reperfusion (IR) injury	reduced IR-induced serum alanine transaminase (ALT) levels	trend towards reduction	significantly reduced liver injury	reduction of IR-induced cleavage and activation of LTR9	reduction of IR-induced activation of MAP kinases	increased an anti-inflammatory molecule	reduced IR-induced pro-inflammatory cytokines	did not improve EAE	reduction of IR-induced activation of MAP kinases	reduction of IR-induced cleavage and activation of LTR9	reduced hepatic ischemic reperfusion (IR) injury in steatotic livers	reduced IR-induced serum alanine transaminase (ALT) levels in steatotic livers	increased an anti-inflammatory molecule	reduced IR-induced pro-inflammatory cytokines
